# Measured values reported in PubChem BioAssay (NCI).
#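 Step 1: Grow cells in 96-well plates. Step 2: Expose to compound for 48 hours at 5 concentrations. Step 3: Interpolate endpoints linearly; if unreached, use highest concentration. The concentration for 50% growth inhibition is given as GI50. At the TGI there is no net growth.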
# Tests used:
# Test in all cases: NCI anticancer screen, dose series, 48 h
# [1] = tested on: U251 CNS
# [2] = tested on: NCI-H23 lung
# [3] = tested on: ACHN renal
# [4] = tested on: RPMI-8226 leukemia
# [5] = tested on: HT29 colon
# [6] = tested on: OVCAR-5 ovarian
# [7] = tested on: PC-3 prostate
# [8] = tested on: OVCAR-8 ovarian
# [9] = tested on: NCI-H522 lung
# [10] = tested on: SNB-19 CNS
# [11] = tested on: TK-10 renal
# [12] = tested on: COLO 205 colon
# [13] = tested on: SK-MEL-28 melanoma
# [14] = tested on: SK-OV-3 ovarian
# [15] = tested on: OVCAR-3 ovarian
# [16] = tested on: SK-MEL-2 melanoma
# [17] = tested on: NCI/ADR-RES ovarian
# [18] = tested on: OVCAR-4 ovarian
# [19] = tested on: CCRF-CEM leukemia
# [20] = tested on: MOLT-4 leukemia
# [21] = tested on: SW-620 colon
# [22] = tested on: HS 578T breast
# [23] = tested on: HOP-62 NSCLC
# [24] = tested on: KM12 colon
# [25] = tested on: HCC-2998 colon
# [26] = tested on: HCT-116 colon
# [27] = tested on: BT-549 breast
# [28] = tested on: NCI-H226 lung
# [29] = tested on: SNB-75 CNS
# [30] = tested on: A549 NSCLC
# [31] = tested on: MDA-MB-231 breast
# [32] = tested on: UACC-62 melanoma
# [33] = tested on: MALME-3M melanoma
# [34] = tested on: UACC-257 melanoma
# [35] = tested on: HOP-92 NSCLC
# [36] = tested on: HL-60(TB) leukemia
# [37] = tested on: SN12C renal
# [38] = tested on: UO-31 renal
# [39] = tested on: T-47D breast
# [40] = tested on: A498 renal
# [41] = tested on: SK-MEL-5 melanoma
# [42] = tested on: SF-539 CNS
# [43] = tested on: NCI-H460 lung
# [44] = tested on: K-562 leukemia
# [45] = tested on: M14 melanoma
# [46] = tested on: 786-0 renal
# [47] = tested on: HCT-15 colon
# [48] = tested on: MDA-MB-435
# [49] = tested on: SF-295 CNS
# [50] = tested on: SF-268 CNS
# [51] = tested on: RXF 393 renal
# [52] = tested on: IGROV1 ovarian
# [53] = tested on: DU-145 prostate
# [54] = tested on: CAKI-1 renal
# [55] = tested on: MCF7 breast
# [56] = tested on: LOX IMVI melanoma
structure (smiles),measurement,setting,value
O=C1NC(=NCc2c(Cl)cccc2Cl)S/C1=C\c1ccc2ncccc2c1,GI50,[1],8.17 µM
same,TGI,[1],> 25 µM
same,GI50,[2],11.6 µM
same,TGI,[2],> 25 µM
same,GI50,[3],8.11 µM
same,TGI,[3],> 25 µM
same,GI50,[4],9.29 µM
same,TGI,[4],> 25 µM
same,GI50,[5],24.9 µM
same,TGI,[5],> 25 µM
same,GI50,[6],> 19.5 µM
same,TGI,[6],> 25 µM
same,GI50,[7],13.4 µM
same,TGI,[7],> 25 µM
same,GI50,[8],10.6 µM
same,TGI,[8],> 25 µM
same,GI50,[9],3.99 µM
same,TGI,[9],8.77 µM
same,GI50,[10],11.3 µM
same,TGI,[10],> 25 µM
same,GI50,[11],3.14 µM
same,TGI,[11],> 22.9 µM
same,GI50,[12],14.7 µM
same,TGI,[12],> 25 µM
same,GI50,[13],> 22.9 µM
same,TGI,[13],> 25 µM
same,GI50,[14],7.53 µM
same,TGI,[14],> 25 µM
same,GI50,[15],8.22 µM
same,TGI,[15],> 25 µM
same,GI50,[16],9.12 µM
same,TGI,[16],24.5 µM
same,GI50,[17],12 µM
same,TGI,[17],> 25 µM
same,GI50,[18],6.53 µM
same,TGI,[18],> 24 µM
same,GI50,[19],9.19 µM
same,TGI,[19],> 25 µM
same,GI50,[20],12.9 µM
same,TGI,[20],> 25 µM
same,GI50,[21],10.6 µM
same,TGI,[21],> 25 µM
same,GI50,[22],8.78 µM
same,TGI,[22],> 21.1 µM
same,GI50,[23],7.03 µM
same,TGI,[23],> 19.9 µM
same,GI50,[24],16 µM
same,TGI,[24],> 25 µM
same,GI50,[25],> 25 µM
same,TGI,[25],> 25 µM
same,GI50,[26],6.15 µM
same,TGI,[26],> 25 µM
same,GI50,[27],6.24 µM
same,TGI,[27],> 25 µM
same,GI50,[28],6.61 µM
same,TGI,[28],> 25 µM
same,GI50,[29],1.14 µM
same,TGI,[29],> 25 µM
same,GI50,[30],10.2 µM
same,TGI,[30],> 25 µM
same,GI50,[31],16.3 µM
same,TGI,[31],> 25 µM
same,GI50,[32],15.9 µM
same,TGI,[32],> 25 µM
same,GI50,[33],10.6 µM
same,TGI,[33],> 25 µM
same,GI50,[34],> 13.7 µM
same,TGI,[34],> 25 µM
same,GI50,[35],4.25 µM
same,TGI,[35],20.2 µM
same,GI50,[36],5.35 µM
same,TGI,[36],> 25 µM
same,GI50,[37],14.1 µM
same,TGI,[37],> 25 µM
same,GI50,[38],4.72 µM
same,TGI,[38],21.1 µM
same,GI50,[39],9.64 µM
same,TGI,[39],> 25 µM
same,GI50,[40],4.47 µM
same,TGI,[40],> 25 µM
same,GI50,[41],13.9 µM
same,TGI,[41],> 25 µM
same,GI50,[42],3.59 µM
same,TGI,[42],10.7 µM
same,GI50,[43],8.31 µM
same,TGI,[43],> 25 µM
same,GI50,[44],8.91 µM
same,TGI,[44],> 25 µM
same,GI50,[45],> 23.3 µM
same,TGI,[45],> 25 µM
same,GI50,[46],9.79 µM
same,TGI,[46],> 25 µM
same,GI50,[47],4.85 µM
same,TGI,[47],> 25 µM
same,GI50,[48],9.24 µM
same,TGI,[48],> 25 µM
same,GI50,[49],> 12.1 µM
same,TGI,[49],> 25 µM
same,GI50,[50],6.71 µM
same,TGI,[50],> 25 µM
same,GI50,[51],6.05 µM
same,TGI,[51],> 24.2 µM
same,GI50,[52],13.1 µM
same,TGI,[52],> 25 µM
same,GI50,[53],6.3 µM
same,TGI,[53],> 25 µM
same,GI50,[54],11 µM
same,TGI,[54],> 25 µM
same,GI50,[55],16.1 µM
same,TGI,[55],> 25 µM
same,GI50,[56],13.7 µM
same,TGI,[56],> 25 µM
